This is an account of results in the NIST ThermoML archive (doi:10.1016/j.jct.2012.02.005).

For series [1] the following is noted: Crystal; DTA.
Series [2] in a line: Molar enthalpy of transition or fusion. To be noted: Crystal; DSC.

Each structure is given as a SMILES string. ± gives the expanded uncertainty stated by the source.

Turning to `c1ccc2nsnc2c1` [2,1,3-benzothiadiazole], the Triple point temperature in series [1] is 316.96 ± 0.39 K. Also, the “Molar enthalpy of transition or fusion” value in series [2] worked out at 3.9 ± 0.0932 kcal/mol.
